Assay results taken from publication PMC4437027, “New ambuic acid derivatives from the solid culture of Pestalotiopsis neglecta and their nitric oxide inhibitory activity” (Scientific Reports, 2015).
Where two headings read alike, the source gives them in different places. Each block holds one molecule with its values, some of them ahead of it.

Key:
[1] = test system: NO production in LPS-induced macrophages (RAW 264.7); assay: Inhibition of NO production in LPS-induced macrophages (RAW 264.7), nitrite accumulation; format: cell-based; conditions: Mus musculus
Text: Mouse monocyte-macrophages RAW 264.7 (ATCC TIB-71) were purchased from the Chinese Academy of Science. RPMI 1640 medium, penicillin, streptomycin, and fetal bovine serum were purchased from Invitrogen (NewYork, USA). Lipopolysaccharide (LPS), DMSO, 3-(4,5-dimethylthiazol-2-yl)-2,5-diphenyl-2H-tetrazolium bromide (MTT), and hydrocortisone were obtained from Sigma Chemical Co. (Saint Louis, MO, U.S.A). RAW 264.7 cells were kept in RPMI 1640 medium supplemented with penicillin (100 U/mL), streptomycin (100 μg/mL), and 10% heat-inactivated fetal bovine serum at 37°C in a humidified incubator with 5% CO2 and 95% air. RAW 264.7 cells were passaged by trypsinization until they attained confluence and were used for assays during the exponential growth phase.
Compounds 1, 4–8 were dissolved in DMSO and were further diluted with the culture medium to give a final DMSO concentration of 0.2% in the assay. This concentration of DMSO had no significant effect on the growth of the cell line tested. The procedure of NO inhibition assay was conducted as previously reported. The level of NO was assessed by measuring the accumulation of nitrite (NO2^−) using the same method as previously reported. Cytotoxicity was measured using the 3-(4,5-dimethylthiazol-2-yl)-2.5-diphenyltetrazolium bromide (MTT) assay method. The inhibition rate was calculated based on the following equation (1).

Fusarium solani = test system: Fusarium solani; set-up: method as in PMID 11261579; conditions: cited from earlier work
Fusarium cubense = test system: Fusarium cubense; set-up: method as in PMID 11261579; conditions: cited from earlier work
Helminthosporium sativum = test system: Helminthosporium sativum; set-up: method as in PMID 11261579; conditions: cited from earlier work
Diplodia natelensis = test system: Diplodia natelensis; set-up: method as in PMID 11261579; conditions: cited from earlier work
Cephalosporium gramineum = test system: Cephalosporium gramineum; set-up: method as in PMID 11261579; conditions: cited from earlier work
Pythium ultimum = test system: Pythium ultimum; set-up: method as in PMID 11261579; conditions: cited from earlier work
Staphyococcus aureus = test system: Staphyococcus aureus; set-up: method as in PMID 19117486; conditions: Gram-positive bacterium Staphyococcus aureus; cited from earlier work
[2] = test system: biosynthesis of cyclic peptide quormones in Enterococcus faecalis; conditions: Gram-positive bacteria Enterococcus faecalis; cited from earlier work
[3] = RAW264.7, LPS-induced RAW 264.7 macrophages, read-out: NO inhibitory activity (IC50)

IC50 [1, 3]: > 100 µM
Compound: CC(=CCC12OC1C(O)C(CO)=C(C=CCCCC(C)O)C2=O)C(=O)O (stereo not drawn) [Compound 1]

IC50 [1, 3]: 88.7 ± 6.74 µM
Compound: CCCCC/C=C/C1=C(COC(C)=O)[C@@H](O)[C@H]2O[C@@]2(C/C=C(\C)C(=O)O)[C@H]1O [Compound 4]

IC50 [1, 3]: > 100 µM
Compound: CCCCC/C=C/C1=C(CO)[C@@H](O)[C@H]2O[C@@]2(C/C=C(\C)C(=O)O)[C@H]1O [Compound 5]

IC50 [1, 3]: 11.2 ± 0.79 µM
Compound: CCCCC/C=C/C1=C(COC(C)=O)[C@@H](O)[C@H]2O[C@@]2(C/C=C(\C)C(=O)O)C1=O [Compound 6]

Compound: CCCCC/C=C/C1=C(CO)[C@H](O)[C@H]2O[C@@]2(C/C=C(\C)C(=O)O)C1=O [Compound 7, Ambuic acid]
IC50 [1, 3]: 20.8 ± 1.41 µM | Antifungal effect (Fusarium solani): moderate antifungal effects | Antifungal effect (Fusarium cubense): moderate antifungal effects | Antifungal effect (Helminthosporium sativum): moderate antifungal effects | Antifungal effect (Diplodia natelensis): moderate antifungal effects | Antifungal effect (Cephalosporium gramineum): moderate antifungal effects | Antifungal effect (Pythium ultimum): moderate antifungal effects | Antimicrobial effect (Staphyococcus aureus): antimicrobial | Inhibition of biosynthesis of cyclic peptide quormones [2]: inhibits the biosynthesis of cyclic peptide quormones

IC50 [1, 3]: > 100 µM
Compound: CCCCC/C=C/C1=C(CO)C(=O)C[C@](O)(C/C=C(\C)C(=O)O)[C@H]1O [Compound 8]

Compound: C[C@]12CCC(=O)C=C1CC[C@@H]1[C@@H]2[C@@H](O)C[C@@]2(C)[C@H]1CC[C@]2(O)C(=O)CO [Hydrocortisone, hydrocortisone, reference compound]
IC50 ([1]; RAW264.7, read-out: NO inhibitory activity (IC50)): 53.7 ± 3.86 µM
